In patent US12180146B2, “Antihypertensive polyol compound and derivative thereof” (TAO PHARMACEUTICAL (SUZHOU) CO., LTD, priority 2020, dated 2024):

How the values were obtained:
[1] = tested on: monocrotaline-induced pulmonary hypertension model rats (MCT-PAH); assay: Monocrotaline-induced pulmonary hypertension model rats, oral (gavage) treatment for 21 days; format: in vivo, SD rats; conditions: 100 mg/kg
Excerpt: Monocrotaline (MCT) was subcutaneously injected to establish an animal model of pulmonary hypertension in SD rats. At the same time, compound 1 was given by gavage for treatment. The pulmonary artery hemodynamics and right heart hypertrophy index RVHI of the rates were detected to determine whether the oral administration of compound 1 has effects of improving Monocrotaline induces pulmonary hypertension.
(§1) SD rats (purchased from Shanghai Xipuer-Bikai Experimental Animal Co., Ltd.), male, weighing 180-200 g, were bred in an artificially controlled animal room with each 12 hours of light and darkness at a temperature of 20-25° C. and relative humidity of 50-60%, and allowed ad libitum to food and water. The rats were randomly divided into groups according to the experimental requirements, and kept separately in cages, with 3 to 4 rats per cage. All relevant operations of animal experiments are in compliance with the provisions of “Guidelines for the Management and Use of Laboratory Animals” of China.
During the experiment, SD rats were randomly divided into 4 groups: blank control group, pulmonary hypertension model group, Selexipag (1 mg/kg) treatment group and compound 1 (100 mg/kg) group with 6 rats in each group, and the concentration in brackets represents the administration concentration of the compound, in which Selexipag is a new oral long-acting prostacyclin receptor agonist discovered and synthesized by Japan New Drug Co., Ltd. On the first day of the experiment, normal saline was injected subcutaneously into the back of neck of rats in the blank control group, and monocrotaline (Chengdu Purifa Biotechnology Co., Ltd.) solution was injected in the rats in other groups at a dosage of 60 mg/kg. Both the positive drug, Selexipag and Compound 1 were administered by gavage. Selexipag and […] were dissolved in 0.5% CMC-Na solution. The rats were continuously administered for 21 days with a volume of […]. The rats in the control and model groups were given the corresponding volume of CMC-Na solution by gavage. Specific groupings can be found in Table 7.
After the administration, the pulmonary vascular hemodynamics and RVHI was determined according to the same experiment method as that in Example 1.

[2] = tested on: monocrotaline-induced pulmonary hypertension model rats (MCT-PAH); assay: Monocrotaline-induced pulmonary hypertension model rats, aerosol inhalation treatment; format: in vivo, SD rats; conditions: 30 mg/kg, inh, 28 days
Procedure: A pulmonary hypertension animal model of SD rats was established by subcutaneous injection of monocrotaline (MCT). The compound 1 was administered by aerosol inhalation for treatment. The pulmonary artery hemodynamics and right heart hypertrophy index RVHI of rats were tested to determine whether compound 1 administered by aerosol inhalation has effects of improving monocrotaline-induced pulmonary hypertension.
as §1
In the second experiment, the rats were divided into 5 groups, namely the control group, model group, positive control Tyvaso (1.62 μg/kg) group, compound 1 (10 mg/kg) group and compound 1 (30 mg/kg) group. On the first day of the experiment, normal saline was injected subcutaneously into the back of the neck of the rats in the blank control group, and monocrotaline (Chengdu Purifa Biotechnology Co., Ltd.) solution was injected in the other groups at a dosage of 60 mg/kg. Compound 1 and Tyvaso were administered by aerosol inhalation, that is, the compound was firstly dissolved in physiological saline, and then the solution was prepared into an aerosol with a nebulizer to be inhaled into the mouth and nose of rats. The rats in the control group and the model group only inhaled an aerosol made of physiological saline. The rats were continuously administered for 28 days, and the concentration in the parentheses of the group name represents the administered concentration of the compound. Specific groupings can be found in Table 9. After the administration, the pulmonary vascular hemodynamics and RVHI were determined in the same way as the experiment method in Example 1.

[3] = tested on: hypoxic pulmonary hypertension model rats; assay: Hypoxic pulmonary hypertension model rats, oral (gavage) treatment for 28 days; format: in vivo, SD rats; conditions: hypoxic PAH rats, 200 mg/kg, po
Procedure: An animal model of pulmonary hypertension in SD rats was established in a hypoxic and low-pressure environment, and compound 1 was administered by gavage at the same time for treatment. The rat pulmonary artery hemodynamics and right heart hypertrophy index RVHI were measured to determine whether compound 1 has effects of improving hypoxic pulmonary hypertension.
as §1
The hypoxic PAH model was established by placing SD male rats in a fully-automatically regulated low-pressure hypoxic chamber (atmospheric pressure of about 50 kPa, oxygen concentration of 10%) for 8 hours a day for 28 days. The rats in the blank control group were kept in a normoxic environment.
The experimental rats of hypoxic PAH model were divided into 8 groups, namely blank control group, model group, Sidenafil (25 mg/kg) group, compound 1 (10 mg/kg) group, compound 1 (25 mg/kg) group, compound 1 (50 mg/kg) group, compound 1 (100 mg/kg) group, and compound 1 (200 mg/kg) group. The concentration in the parentheses of the group name represents the administration concentration of the compound or drug. In hypoxia-induced PAH experiments, Sidenafil is often used as a positive drug, which can reduce the pulmonary artery pressure in rats and reduce the right ventricular hypertrophy and vascular remodeling. In this experiment, 25 mg/kg of Sidenafil was used as the positive drug. Both the positive drugs Sidenafil and Compound 1 were dissolved in physiological saline and formulated into solutions of different concentrations according to different administration concentrations. The rats were continuously administered for 28 days with an administration volume of 5 ml/kg. Rats in the control and model groups were given the corresponding volume of physiological saline solution via gavage. The specific grouping can be found in Table 5.
After the administration was completed, the POWERLAB biological information acquisition and treatment system was started, and the right cardiac catheter filled with 0.2% heparin sodium (Beijing Solo Technology Co. Ltd.) in normal saline was connected to the pressure transducer and then zero-calibrationed for use. After 20% urethane (Shanghai Yuanye Biotechnology Co., Ltd.) solution was injected into the abdominal cavity of the rats for anesthesia, the right neck hair was shaved and the right jugular vein was isolated and exposed. […] After the typical right ventricular waveform appeared and stabilized for a while, the waveform was recorded, and then the pressure value was read by Powerlab biological information acquisition and processing system (ADInstruments).
After the pressure was measured, the catheter was taken out, and the rat was dissected immediately to take out the heart and lung tissues. The right ventricle (RV) and the left ventricle and interventricular septum (LV+S) were separated and weighed, and the right heart hypertrophy index RVHI=RV/(LV+S) was calculated. The lung lobe tissue from the right lower part of the lung was separated, soaked in 4% paraformaldehyde (Sigma) for about 1 week to prepare a paraffin section with a thickness of 3 μm, and then conducted to hematoxylin-eosin staining (Wuhan Guge Biotechnology Co., Ltd.). […]

[4] = tested on: spontaneously hypertensive rats (SHR); assay: Antihypertensive activity test: blood pressure and heart rate of spontaneously hypertensive rats (SHR); format: in vivo, rat; conditions: 200 mg/kg
Method in brief: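 Spontaneously hypertensive rats received compound at 200 mg/kg. SBP and heart rate were measured before and after dosing. A drop in SBP of ≥20 mmHg from baseline counted as effective, and heart-rate changes were tested by paired t-test (P<0.05).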

CCc1cccc(C(COC(C)=O)OC(C)=O)c1 (stereo not drawn) [Compound 30]
2 × MT/ED [1]: 0.31 ± 0.021 | RVHI [1]: 0.245 ± 0.032 | RVSP [1]: 44.38 ± 2.89 mmHg | mPAP [1]: 16.21 ± 1.29 mmHg | 2 × MT/ED [2]: 0.402 ± 0.034 | RVHI [2]: 0.273 ± 0.043 | RVSP [2]: 46.04 ± 3.27 mmHg | mPAP [2]: 16.00 ± 3.44 mmHg | 2 × MT/ED [3]: 0.287 ± 0.025 | RVHI [3]: 0.303 ± 0.0632 | RVSP [3]: 62.14 ± 3.35 mmHg | mPAP [3]: 16.03 ± 5.35 mmHg | SBP Difference before and after administration, 1 h ([4]; 1 h): 4 mmHg | SHR blood pressure (SBP), time after administration 1 h ([4]; 1 h, n = 8): 189 ± 7.54 mmHg | SBP Difference before and after administration, 2 h ([4]; 2 h): 5 mmHg | SHR blood pressure (SBP), time after administration 2 h ([4]; 2 h, n = 8): 188 ± 3.69 mmHg | SBP Difference before and after administration, 3 h ([4]; 3 h): 8 mmHg | SHR blood pressure (SBP), time after administration 3 h ([4]; 3 h, n = 8): 185 ± 10.11 mmHg | SBP Difference before and after administration, 4 h ([4]; 4 h): 20 mmHg | SHR blood pressure (SBP), time after administration 4 h ([4]; 4 h, n = 8): 183 ± 9.66 mmHg | SBP Difference before and after administration, 5 h ([4]; 5 h): 5 mmHg | SHR blood pressure (SBP), time after administration 5 h ([4]; 5 h, n = 8): 188 ± 14.9 mmHg | SBP Difference before and after administration, 6 h ([4]; 6 h): 5 mmHg | SHR blood pressure (SBP), time after administration 6 h ([4]; 6 h, n = 8): 188 ± 8.64 mmHg
